Measurements: the Biogen ADME set (Fang et al. 2023)
Converted amounts (≈) assume the structure as drawn.

Conditions: for aqueous solubility: pH 6.8

Row | MDR1-MDCK efflux ratio | intrinsic clearance, human liver microsomes | intrinsic clearance, rat liver microsomes | aqueous solubility | fraction unbound, human plasma | Structure (SMILES) | fraction unbound, rat plasma
1 | 1.42 | ≤ 4.74 mL/min/kg | 31.4 mL/min/kg | 47 µg/mL (≈ 157 µM) | – | CC(=O)N1CCC[C@H]1C(=O)Nc1cccc(OC(F)F)c1 | –
2 | 0.392 | 97 mL/min/kg | 2050 mL/min/kg | 3.93 µg/mL (≈ 12.9 µM) | – | Cc1cc(C(=O)Nc2ccc(C)c(C)c2)n(-c2ccccc2)n1 | –
3 | 0.737 | 6.22 mL/min/kg | 884 mL/min/kg | 66.7 µg/mL (≈ 243 µM) | – | CCNC(=O)N1CCC2(CCc3ccccc3O2)CC1 | –
4 | 11 | 13.3 mL/min/kg | 249 mL/min/kg | – | – | COc1ccc(COc2ccc(Cc3cnc(N)nc3N)cc2OC)cc1 | –
5 | – | 208 mL/min/kg | 707 mL/min/kg | – | – | N#Cc1nc(-c2ccccc2)oc1NCc1ccc2c(c1)OCO2 | –
6 | 0.835 | 11.4 mL/min/kg | 332 mL/min/kg | 37.7 µg/mL (≈ 138 µM) | – | CCC(Nc1cnn(C)c1)c1ccc2c(c1)OCCO2 (configuration not stated) | –
7 | 7.87 | 11.5 mL/min/kg | 150 mL/min/kg | 41.5 µg/mL (≈ 148 µM) | – | Cn1ccnc1CCNC(=O)c1cccc2cccnc12 | –
8 | – | – | – | 65.5 µg/mL (≈ 199 µM) | – | Cc1ccnc(NC(=O)C2CCN(CCc3cccs3)CC2)c1 | –
9 | 0.795 | 21.5 mL/min/kg | 264 mL/min/kg | 46.2 µg/mL (≈ 146 µM) | – | CC(=O)N1CCC(CCNc2ccc3ccc(F)cc3n2)CC1 | –
10 | 8.26 | 789 mL/min/kg | 3110 mL/min/kg | – | – | CC(C)c1nc(S(=O)(=O)N2CC3(CC3)c3ccccc32)c[nH]1 | –
11 | 0.501 | 506 mL/min/kg | 3360 mL/min/kg | 27.7 µg/mL (≈ 105 µM) | – | Cn1c(-c2ccccc2)cnc1NCc1ccccc1 | –
12 | – | – | – | 0.22 µg/mL (≈ 0.711 µM) | – | CNc1ccc(/C=C/C=C/c2nc3ccc(O)cc3s2)cn1 | –
13 | 21.9 | – | – | 0.3 µg/mL (≈ 0.615 µM) | – | CC(=O)c1cnc2ccc(-c3cc(Cl)c(O)c(Cl)c3)nc2c1N[C@H]1CC[C@H](CN(C)C)CC1 | –
14 | 6.76 | ≤ 4.74 mL/min/kg | – | – | 0.521 | NC1CCCC1C(=O)N1CCC(c2c[nH]c3ncccc23)CC1 (configuration not stated) | –
15 | 1.69 | 24.2 mL/min/kg | 1910 mL/min/kg | – | – | C[C@H]1CN2C[C@H](O)C[C@@H]2CN1Cc1cccc2ccccc12 | –
16 | 23.6 | 180 mL/min/kg | 783 mL/min/kg | 28 µg/mL (≈ 58.3 µM) | – | CC(C)NC(=O)N1CC[C@H](NC2=Nc3cc(F)ccc3N(CC(F)F)c3ccc(Cl)cc32)C1 | –
17 | 91 | 29.3 mL/min/kg | 134 mL/min/kg | – | – | CC1(C)[C@@H]2C[C@H]1[C@@]1(O)[C@@H](C2)Oc2c(ccc(O)c2C(=O)NCCNS(C)(=O)=O)[C@@H]1O | –
18 | – | 222 mL/min/kg | 3560 mL/min/kg | – | – | C[C@@H](Cn1nc2c(cc1=O)CCCCC2)NC(=O)CCc1ccccc1 | –
19 | 5.8 | 7.04 mL/min/kg | 43.5 mL/min/kg | 53 µg/mL (≈ 143 µM) | – | COc1cc2cc(N)c(C3CCN(C(=O)C(C)(C)C)CC3)nc2cc1OC | –

Row | MDR1-MDCK efflux ratio | intrinsic clearance, human liver microsomes | intrinsic clearance, rat liver microsomes | aqueous solubility | fraction unbound, human plasma | Structure (SMILES) | fraction unbound, rat plasma
20 | – | ≤ 4.74 mL/min/kg | ≤ 10.7 mL/min/kg | – | – | CCNC(=O)c1cc(N2CCC(N3CCCC3=O)CC2)ccn1 | –
21 | 14.9 | 37.3 mL/min/kg | 390 mL/min/kg | 70.2 µg/mL (≈ 156 µM) | – | Cc1nc([C@H]2CC[C@H](CNC(=O)CN3CCC(c4ccccc4)CC3)CC2)ccc1C(N)=O | –
22 | 3.45 | 146 mL/min/kg | 835 mL/min/kg | – | – | CC(C)N(C[C@@H]1O[C@@H](n2cnc3c(N)ncnc32)[C@H](O)[C@H]1O)[C@H]1C[C@@H](CCc2nc3cc(C(C)(C)C)ccc3[nH]2)C1 | –
23 | 0.669 | 18.2 mL/min/kg | 644 mL/min/kg | 45.9 µg/mL (≈ 159 µM) | – | COc1ccc(CN(C)C(=O)Nc2ccccc2)cc1F | –
24 | – | – | – | 44.4 µg/mL (≈ 212 µM) | – | COc1nc(C#N)c(N2CCOCC2)o1 | –
25 | 0.295 | – | – | 0.21 µg/mL (≈ 0.711 µM) | – | COCc1noc(-c2ccc(-c3cc(C)cc(C)c3)nc2)n1 | –
26 | 0.363 | 94.3 mL/min/kg | 1600 mL/min/kg | – | – | CN1CCN(c2oc(-c3cccc4ccccc34)nc2C#N)CC1 | –
27 | 12.4 | 90.5 mL/min/kg | 2250 mL/min/kg | 62.3 µg/mL (≈ 189 µM) | – | Cn1ccnc1CN(C(=O)c1[nH]c2ccccc2c1Cl)C1CC1 | –
28 | 11.5 | 67.6 mL/min/kg | 274 mL/min/kg | – | – | CC(=O)N1c2ccc(S(=O)(=O)Nc3cccc(-c4cnco4)c3)cc2CC1C (configuration not stated) | –
29 | – | ≤ 4.74 mL/min/kg | ≤ 10.7 mL/min/kg | – | – | O=C(NC[C@]1(O)CCN(Cc2cccs2)C[C@H]1O)c1c[nH]cn1 | –
30 | 5.53 | ≤ 4.74 mL/min/kg | 70.1 mL/min/kg | 39.1 µg/mL (≈ 151 µM) | – | Cc1cc2ncn(CC(=O)NC(C)(C)C)c2cc1C | –
31 | 0.519 | – | – | 0.9 µg/mL (≈ 2.79 µM) | – | COc1cccc(N2CCN(c3nc(C)cc(C)c3C#N)CC2)c1 | –
32 | – | 43.4 mL/min/kg | 814 mL/min/kg | 40.6 µg/mL (≈ 117 µM) | – | COc1ccc(/C=C/C(=O)c2c(C)nc3ccccc3c2N)c(OC)c1 | –
33 | – | 53.3 mL/min/kg | 373 mL/min/kg | – | – | N#CCc1ccc(OCc2ccncc2)cc1 | –
34 | 2.37 | 28.7 mL/min/kg | 142 mL/min/kg | 6.1 µg/mL (≈ 10.4 µM) | – | CC(C)(C)Sc1c(CC(C)(C)C(=O)O)n(Cc2ccc(Cl)cc2)c2ccc(OCc3ccc4ccccc4n3)cc12 | –
35 | 14 | 15.9 mL/min/kg | 238 mL/min/kg | – | – | CCC(=O)Nc1cccc(Oc2nc(Nc3ccc(N4CCN(C)CC4)cc3OC)ncc2Cl)c1 | –
36 | – | ≤ 4.74 mL/min/kg | 49.1 mL/min/kg | 16.8 µg/mL (≈ 66.1 µM) | – | Cc1ccc(OCc2nc3cc(N)ccc3[nH]2)cc1 | –
37 | 1.31 | 17.3 mL/min/kg | 267 mL/min/kg | 35.8 µg/mL (≈ 109 µM) | – | Cc1nnc(NCC(=O)N2CCc3sccc3C2)c(C#N)c1C | –
38 | 20.2 | 258 mL/min/kg | 248 mL/min/kg | – | – | CCN1CCN(S(=O)(=O)c2c[nH]c(C(C)C)n2)c2ccccc21 | –

Row | MDR1-MDCK efflux ratio | intrinsic clearance, human liver microsomes | intrinsic clearance, rat liver microsomes | aqueous solubility | fraction unbound, human plasma | Structure (SMILES) | fraction unbound, rat plasma
39 | 11.3 | ≤ 4.74 mL/min/kg | 35 mL/min/kg | – | – | Cc1cc2nc(Sc3nnc(C)n3C)c3ccccc3n2n1 | –
40 | – | ≤ 4.74 mL/min/kg | ≤ 10.7 mL/min/kg | 32.2 µg/mL (≈ 155 µM) | – | COc1ccc(N)cc1N1CCOC1=O | –
41 | – | 130 mL/min/kg | 1910 mL/min/kg | – | – | Cc1cc(CSCc2c(C)noc2C)no1 | –
42 | 0.246 | 166 mL/min/kg | 111 mL/min/kg | 30.3 µg/mL | – | COc1ccc(-c2nc(CC(N)=O)sc2C)cc1.Cl | –
43 | 0.427 | ≤ 4.74 mL/min/kg | 20.8 mL/min/kg | 35.2 µg/mL (≈ 128 µM) | – | O=C(NCc1ccc(CO)c(F)c1)Nc1ccccc1 | –
44 | 0.397 | 8.57 mL/min/kg | 209 mL/min/kg | 87.4 µg/mL (≈ 288 µM) | – | CN1CCC(OC(=O)Nc2ccc(Cl)c(Cl)c2)CC1 | –
45 | 3.75 | 8.9 mL/min/kg | 61.5 mL/min/kg | – | – | Cc1ncsc1CNc1nnc(-c2ccncc2)o1 | –
46 | 531 | 96.8 mL/min/kg | 765 mL/min/kg | – | – | c1nn(C2CCOCC2)cc1Nc1ncc2nnn(-c3ccc4cn[nH]c4c3)c2n1 | –
47 | 46.4 | 8.13 mL/min/kg | 37.4 mL/min/kg | 45 µg/mL (≈ 109 µM) | 0.0183 | O=C(Nc1cccc(-c2nncn2C2CC2)c1)c1cc(-n2cnc(C3CC3)c2)ccn1 | 0.0409
48 | 0.527 | 28.1 mL/min/kg | 484 mL/min/kg | 56.4 µg/mL (≈ 175 µM) | – | CN1CCN(c2ncncc2-c2nc(-c3ccccc3)no2)CC1 | –
49 | 18.5 | ≤ 4.74 mL/min/kg | 17.3 mL/min/kg | – | – | CCc1nccn1Cc1nc(N)nc(N(C)C)n1 | –
50 | 16.1 | ≤ 4.74 mL/min/kg | 36.7 mL/min/kg | – | – | CC(C)c1cc(N(C)Cc2nc(C3CC3)n[nH]2)n[nH]1 | –
51 | – | 92.9 mL/min/kg | 1240 mL/min/kg | – | – | Fc1cccc2c1CN(Cc1c[nH]nc1-c1cccnc1)CC2 | –
52 | 0.689 | 19.2 mL/min/kg | 388 mL/min/kg | 39.6 µg/mL (≈ 131 µM) | – | Cc1nn(Cc2csc(-c3cccs3)n2)c(N)c1C#N | –
53 | – | 72.7 mL/min/kg | 349 mL/min/kg | 54.4 µg/mL (≈ 133 µM) | – | O=C(CN1CCSC1=O)N1CCN(Cc2sc3ccccc3c2Cl)CC1 | –
54 | – | 188 mL/min/kg | 170 mL/min/kg | – | – | COc1ccc(Nc2nc(Cl)cc(Cl)n2)cc1 | –
55 | – | – | – | – | – | NCCCC[C@H](N[C@@H](CCc1ccccc1)C(=O)O)C(=O)N1CCC[C@H]1C(=O)O | 1
56 | 0.711 | 31.2 mL/min/kg | 835 mL/min/kg | – | – | CCN(CC)C(=O)CSCc1cncc(F)c1 | –

Row | Structure (SMILES) | MDR1-MDCK efflux ratio | intrinsic clearance, human liver microsomes | intrinsic clearance, rat liver microsomes | aqueous solubility | fraction unbound, human plasma | fraction unbound, rat plasma
57 | O[C@@H]1CCCC[C@H]1N1CCC(c2ccccc2)CC1 | 0.462 | ≤ 4.74 mL/min/kg | 1390 mL/min/kg | 46.5 µg/mL (≈ 179 µM) | – | –
58 | Fc1ccc(-c2nnc(CN3CCC(c4c[nH]c5ccccc45)CC3)o2)cc1 | – | 29.3 mL/min/kg | 230 mL/min/kg | 8 µg/mL (≈ 21.3 µM) | – | –
59 | CC(C)[C@H]1C(=O)N[C@H](CO)Cc2cc(NC(=O)/C=C/C=C/c3ccc(C(F)(F)F)cc3)ccc2N1C | 55.9 | 497 mL/min/kg | 439 mL/min/kg | – | – | –
